Five molecules from patent US8710038B2, “Pyrazole kinase modulators and methods of use” (Exelixis, Inc., priority 2004, dated 2014) can be followed below.

Experiment [1] deals with T1, flt-3 (Homo sapiens, UniProt P36888).
T1 construct: baculovirus expressed human Flt-3 kinase domain R571-S993
T1 sequence (P36888 571-993): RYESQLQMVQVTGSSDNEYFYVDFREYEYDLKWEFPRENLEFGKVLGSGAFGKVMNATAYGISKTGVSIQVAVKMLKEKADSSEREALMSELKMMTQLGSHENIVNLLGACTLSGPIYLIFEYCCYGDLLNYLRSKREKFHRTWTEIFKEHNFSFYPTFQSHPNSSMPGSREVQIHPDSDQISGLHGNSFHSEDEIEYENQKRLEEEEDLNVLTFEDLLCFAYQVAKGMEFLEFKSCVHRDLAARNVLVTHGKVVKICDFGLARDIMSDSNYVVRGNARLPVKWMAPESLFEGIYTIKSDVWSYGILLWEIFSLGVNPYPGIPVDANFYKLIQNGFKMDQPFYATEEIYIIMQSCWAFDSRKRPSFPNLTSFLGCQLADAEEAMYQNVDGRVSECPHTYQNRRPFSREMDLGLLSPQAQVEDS
Description: flt-3 Luciferase-Coupled Chemiluminescent Kinase assay (LCCA). Format: biochemical. An outline of the steps:
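Baculovirus-expressed human Flt-3 kinase domain (R571-S993, 5 nM) was reacted with 5 μM ATP and 3 μM poly-EY in Tris pH 7.5 buffer with MgCl2/MnCl2 for 3 h at ambient temperature. Remaining ATP was read by luciferase-luciferin chemiluminescence, with ATP consumption standardized to 25-45%, for IC50.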

Experiment [2] concerns the target EGFR (Homo sapiens, UniProt P00533). Description: EGFR kinase inhibition assay. Format: biochemical.
For experiment [3], the target named is T2, EphB4 (Homo sapiens, UniProt P54760).
T2 sequence (P54760 16-987): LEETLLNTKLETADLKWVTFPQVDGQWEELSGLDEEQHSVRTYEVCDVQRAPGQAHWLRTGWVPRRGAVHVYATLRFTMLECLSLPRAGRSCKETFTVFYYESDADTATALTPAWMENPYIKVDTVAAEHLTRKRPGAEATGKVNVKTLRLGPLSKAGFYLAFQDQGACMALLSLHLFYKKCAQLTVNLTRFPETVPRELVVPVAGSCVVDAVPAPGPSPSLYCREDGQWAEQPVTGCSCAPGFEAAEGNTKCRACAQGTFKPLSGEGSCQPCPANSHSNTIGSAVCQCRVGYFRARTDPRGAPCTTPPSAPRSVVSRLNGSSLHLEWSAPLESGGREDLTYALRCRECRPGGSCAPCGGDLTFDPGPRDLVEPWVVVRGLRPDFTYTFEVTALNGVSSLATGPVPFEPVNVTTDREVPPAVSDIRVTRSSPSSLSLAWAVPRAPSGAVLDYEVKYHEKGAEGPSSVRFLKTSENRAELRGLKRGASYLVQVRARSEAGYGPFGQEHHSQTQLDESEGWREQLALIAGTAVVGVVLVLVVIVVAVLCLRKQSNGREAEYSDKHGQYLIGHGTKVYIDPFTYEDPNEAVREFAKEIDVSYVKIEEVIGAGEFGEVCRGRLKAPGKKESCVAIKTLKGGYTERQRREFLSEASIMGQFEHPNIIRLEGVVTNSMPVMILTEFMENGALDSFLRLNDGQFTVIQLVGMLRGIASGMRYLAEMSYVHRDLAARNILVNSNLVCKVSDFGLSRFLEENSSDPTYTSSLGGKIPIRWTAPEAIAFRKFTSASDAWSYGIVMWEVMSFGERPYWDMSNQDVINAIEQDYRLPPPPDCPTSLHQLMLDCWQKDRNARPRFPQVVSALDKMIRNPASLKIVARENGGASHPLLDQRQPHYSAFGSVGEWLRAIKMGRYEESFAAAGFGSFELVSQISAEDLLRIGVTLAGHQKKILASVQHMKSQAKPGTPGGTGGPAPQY
Description: EphB4 kinase inhibition assay. Format: biochemical. In outline: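 ATP near each kinase's KM; 10-point dose-response fitted to a four-parameter equation for IC50. Formats: γ33P-ATP transfer to plate-coated substrate (1.5-2.5 h, ambient, scintillation), luciferase-coupled ATP-consumption read-out (2-4 h, 25-45% ATP consumed), or AlphaScreen with biotinylated poly(Glu,Tyr) 4:1 (1 h).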

The target of experiment [4] is c-Kit (Homo sapiens, UniProt P10721). Description: c-Kit biochemical assay (AlphaScreen). In outline:
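Kinase, compound, ATP and biotinylated poly(Glu,Tyr) 4:1 reacted 1 hr at ambient temperature; quenched with EDTA buffer (pH 7.4) containing streptavidin donor and anti-phosphotyrosine PY100 acceptor beads, incubated 16 hr, then AlphaScreen signal read to give IC50.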

Sequence of EGFR (P00533 25-1210, species assumed): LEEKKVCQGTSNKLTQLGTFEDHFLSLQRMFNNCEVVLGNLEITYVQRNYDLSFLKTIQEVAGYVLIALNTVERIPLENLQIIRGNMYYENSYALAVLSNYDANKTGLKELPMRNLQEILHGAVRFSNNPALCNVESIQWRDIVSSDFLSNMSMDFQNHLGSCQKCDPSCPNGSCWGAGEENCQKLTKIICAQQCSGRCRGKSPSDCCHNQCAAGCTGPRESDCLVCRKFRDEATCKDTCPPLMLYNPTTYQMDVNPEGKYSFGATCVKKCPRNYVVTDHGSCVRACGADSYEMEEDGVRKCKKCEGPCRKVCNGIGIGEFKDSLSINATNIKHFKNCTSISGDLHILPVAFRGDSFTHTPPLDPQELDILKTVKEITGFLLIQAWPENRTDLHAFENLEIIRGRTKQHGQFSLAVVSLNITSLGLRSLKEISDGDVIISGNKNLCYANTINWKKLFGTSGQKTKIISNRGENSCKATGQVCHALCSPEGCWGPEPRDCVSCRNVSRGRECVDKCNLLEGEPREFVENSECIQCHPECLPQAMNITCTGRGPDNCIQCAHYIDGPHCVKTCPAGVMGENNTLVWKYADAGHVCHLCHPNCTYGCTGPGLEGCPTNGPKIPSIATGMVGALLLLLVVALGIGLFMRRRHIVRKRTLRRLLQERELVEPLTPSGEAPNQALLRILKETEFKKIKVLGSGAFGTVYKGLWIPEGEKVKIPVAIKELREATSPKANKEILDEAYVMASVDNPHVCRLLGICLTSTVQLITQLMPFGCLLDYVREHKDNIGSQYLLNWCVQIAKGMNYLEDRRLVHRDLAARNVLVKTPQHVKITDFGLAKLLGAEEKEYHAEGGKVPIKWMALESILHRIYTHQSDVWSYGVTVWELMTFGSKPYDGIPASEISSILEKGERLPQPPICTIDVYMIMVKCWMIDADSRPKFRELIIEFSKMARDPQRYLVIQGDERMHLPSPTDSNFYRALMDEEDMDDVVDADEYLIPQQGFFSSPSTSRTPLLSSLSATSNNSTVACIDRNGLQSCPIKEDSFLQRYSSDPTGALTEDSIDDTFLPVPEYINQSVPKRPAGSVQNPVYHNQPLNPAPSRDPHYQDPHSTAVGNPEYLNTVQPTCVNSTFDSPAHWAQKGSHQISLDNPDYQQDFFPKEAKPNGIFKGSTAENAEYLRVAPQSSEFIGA
Sequence of c-Kit (P10721 26-976): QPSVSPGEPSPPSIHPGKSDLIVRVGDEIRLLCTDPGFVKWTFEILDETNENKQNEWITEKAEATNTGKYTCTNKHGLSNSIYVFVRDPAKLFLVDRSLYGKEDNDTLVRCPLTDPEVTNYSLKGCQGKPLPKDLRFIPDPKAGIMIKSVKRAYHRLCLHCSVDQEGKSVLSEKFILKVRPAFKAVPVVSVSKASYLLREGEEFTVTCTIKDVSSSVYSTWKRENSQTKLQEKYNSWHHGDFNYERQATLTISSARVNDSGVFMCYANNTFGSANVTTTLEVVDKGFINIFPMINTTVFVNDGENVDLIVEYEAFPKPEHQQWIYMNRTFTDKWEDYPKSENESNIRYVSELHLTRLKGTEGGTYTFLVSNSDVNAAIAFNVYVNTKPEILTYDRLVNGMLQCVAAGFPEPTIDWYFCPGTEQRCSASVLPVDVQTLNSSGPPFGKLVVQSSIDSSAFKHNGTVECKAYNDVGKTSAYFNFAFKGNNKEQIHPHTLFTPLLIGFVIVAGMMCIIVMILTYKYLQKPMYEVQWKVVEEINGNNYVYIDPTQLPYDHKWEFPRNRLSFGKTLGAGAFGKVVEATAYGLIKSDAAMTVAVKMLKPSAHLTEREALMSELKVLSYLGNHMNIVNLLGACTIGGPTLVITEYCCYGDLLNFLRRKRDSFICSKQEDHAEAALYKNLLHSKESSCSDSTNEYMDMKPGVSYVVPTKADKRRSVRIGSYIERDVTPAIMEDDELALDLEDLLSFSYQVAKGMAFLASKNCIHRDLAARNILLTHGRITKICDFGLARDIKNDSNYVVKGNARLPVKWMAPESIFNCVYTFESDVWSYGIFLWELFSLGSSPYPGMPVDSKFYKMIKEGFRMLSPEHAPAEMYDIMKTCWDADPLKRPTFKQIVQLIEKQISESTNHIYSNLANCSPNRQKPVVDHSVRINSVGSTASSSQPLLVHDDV

`CN1CCN(c2cccc(-c3cc(/C=C/c4ccc(O)cc4)[nH]n3)c2)CC1` [Entry 58, 4-((E)-2-{3-[3-(4-methylpiperazin-1-yl)phenyl]-1H-pyrazol-5-yl}ethenyl)phenol]: the half-inhibitory concentration (IC50) in experiment [1] was 50 to 500 nM; in experiment [2] it was greater than 5000 nM; in experiment [3], greater than 5000 nM; in experiment [4], 50 to 500 nM.
Regarding `COc1cc(/C=C/c2cc(/C=C/c3ccc(F)cc3F)n[nH]2)ccc1O` [Entry 59, 4-((E)-2-{3-[(E)-2-(2,4-difluorophenyl)ethenyl]-1H-pyrazol-5-yl}ethenyl)-2-(methyloxy)phenol], the IC50 was less than 50 nM in experiment [1], greater than 5000 nM in experiment [2], greater than 5000 nM in experiment [3] and 50 to 500 nM in experiment [4].
Consider `Oc1ccc(/C=C/c2cc(-c3ccc(F)cc3)[nH]n2)cc1` [Entry 60, 4-{(E)-2-[5-(4-fluorophenyl)-1H-pyrazol-3-yl]ethenyl}phenol], for which the IC50 in experiment [1] is less than 50 nM; in experiment [2], greater than 5000 nM; in experiment [3], greater than 5000 nM; in experiment [4], 50 to 500 nM.
As to `Oc1ccc(/C=C/c2cc(-c3ccc(Cl)cc3)n[nH]2)cc1` [Entry 61, 4-{(E)-2-[3-(4-chlorophenyl)-1H-pyrazol-5-yl]ethenyl}phenol], the concentration for half-maximal inhibition (IC50) in experiment [1] was 50 to 500 nM; in experiment [2], greater than 5000 nM; in experiment [3], greater than 5000 nM; in experiment [4] it was 500 to 5000 nM.
For the molecule `O=C(Nc1ccccc1)Nc1ccc(-c2cc(-c3ccccc3)n[nH]2)cc1` [Entry 76, N-phenyl-N′-[4-(3-phenyl-1H-pyrazol-5-yl)phenyl]urea], the IC50 in experiment [1] is 500 to 5000 nM; in experiment [2], greater than 5000 nM; in experiment [3] it was greater than 5000 nM; in experiment [4] it was 500 to 5000 nM.
